Results from patent US11911417B2, “Nerve growth promoter and method for producing same, internal preparation, medium additive, cell dilution additive, medium, cell dilution, antioxidant and method for producing same, external preparation, and wound treatment agent and method for producing same” (LAIMU CORPORATION, priority 2016, dated 2024).

Assay: radical trapping test (ABTS radical cations)
Settings: 20 μM, 5 to 120 minutes, FIG. 5
Experimental: The antioxidant 1 (freeze-dried powder of protease degradation product) produced was evaluated for the radical trapping activity against ABTS radical cations (unnatural model radical), according to the spectrophotometric method described in Biol. Pharm. Bull., 29, 766-771 (2006). Specifically, the antioxidant 1 was added to 3 mL of a reaction solution containing ABTS radical cations to be a final concentration of 300 μg/mL, and at the time after 5 minutes, 15 minutes, 30 minutes, 60 minutes and 120 minutes, the residual ratio of the ABTS radical cations was determined. For comparison, a system added with ascorbic acid or arbutin in an amount of 20 μM each in place of the antioxidant 1, and a system added with water in the same amount as that of the antioxidant 1 (control) were tested in the same manner.

Row | SMILES | course of the radical residual ratio with the lapse of time
1 | OC[C@H]1O[C@@H](Oc2ccc(O)cc2)[C@H](O)[C@@H](O)[C@@H]1O [arbutin] | did not change after further lapse of time
2 | O=C1O[C@H]([C@@H](O)CO)C(O)=C1O [ascorbic acid] | did not change after further lapse of time
